Source: patent US7030123B2, “Indole derivatives with vascular damaging activity” (AstraZeneca AB, priority 2000, dated 2006)
Blank lines part the entries; values can stand above or below the compound they belong to.

How the values were obtained:
[1] = Dark et al 1997 Cancer Research 57, 1829-1834; cited from earlier work
[2] = system: colchicine binding site on tubulin (purified tubulin protein from bovine brain); experiment: Colchicine binding site competitive assay; conditions: dose of compound of 10 μM; relative to DMSO negative control
Protocol: (i) Colchicine Binding Site Competitive Assay Kit.
The ability of a ligand to bind specifically to the coichicine binding site on tubulin, an indicator of the vascular damaging activity, was assessed using a size exclusion chromatography assay kit from “Cytoskeleton” (1650 Fillmore St. #240, Denver, Colo. 80206, U.S.A.) Catalogue number of kit: BK023.
The following reagents were used: • tubulin buffer, to give 0.1 mM GTP, 0.5 mM MgCl2, 0.5 mM EGTA, 40 mM PIPES buffer at pH6.9 in the final reaction mix; • purified tubulin protein from bovine brain at 1 mg/ml in tubulin buffer; • 0.02 mM fluorescent coichicine in tubulin buffer [FITC (fluorescein isothiocyanate)-labelled]; • 2 mM colchicine in tubulin buffer; • 0.2 mM vinblastine in tubulin buffer; and • G-25 Sephadex™ Fine-particle size 34-138 μm.
The reaction was performed as follows: • 8 μl of test compound (dissolved in DMSO) was gently mixed with 150 μl of tubulin. This was then incubated at 37° C. for 30 minutes. […]
Chromatography was performed as follows, using chromatography columns filled with 3 mls of G-25 Sephadex™ Fine slurry. […] The fluorescence of the tubulin-containing fractions was detected on a spectrophotometer which excites at 485 nm and emits at 535 nm. […]
The degree of competition of colchicine binding by either unlabelled colchicine or test compound was calculated relative to the DMSO negative control.

[3] = system: HUVECs (Human umbilical cord vein endothelial cells); experiment: HUVEC detachment assay; format: cell-based; conditions: for activity in the HUVEC cell detachment assay (detachment): dose of compound of 100 μM, 40 minutes, versus undosed control wells
Source text: (ii) HUVEC Detachment Assay
Compounds according to the invention are expected to be able to damage vasculature, such as tumour vasculature, that has been newly formed whilst leaving normal, mature vasculature unaffected. The identification of compounds which can selectively, and preferably potently, damage newly-formed vasculature is desirable and is the subject of the present invention. The ability of the compounds to act in this way may be assessed, for example, using the procedure set out below:
This assay examined the effects of compounds on the adherence of HUVECs (Human umbilical cord vein endothelial cells) to tissue culture plasticware.
HUVECs (supplied by TCS Biologicals Ltd, Buckingham, United Kingdom) were plated in 0.2% gelatin-coated 12 well tissue culture plates at a concentration of 3×10^4 cells per well in 1 ml TCS medium. After 24 hours, when the cells were at ˜30% confluency, they were dosed with a compound under test for 40 minutes at 37° C., 5% CO2. After this incubation the medium containing drug was pipetted off, and the cells were then gently washed in 2 mls of HBSS (Hanks' Balanced Salt Solution purchased from Life Technologies Ltd, Paisley UK; Catalogue # 24020-083) to remove any detached cells. The washing solution was then removed, and the adherent cells remaining were trypsinised using 300 μl of 1×Trypsin-EDTA solution (Life Technologies Ltd, Paisley, UK; Catalogue # 43500-019) at ambient temperature for 2 minutes. The trypsinised cells were then made up to 1 ml with TCS Biologicals medium, then centrifuged at 2000 rpm for 2 minutes. The cell pellet was then resuspended in a volume of 50 μl of TCS Biologicals medium. Total cell counts were obtained by counting the cells on a haemocytometer. The amount of cell detachment was calculated by comparing the number of cells remaining attached following treatment with the number in undosed control wells.

SMILES: COc1cc2c(c(OC)c1OC)-c1ccc(OC)c(=O)cc1[C@@H](NC(C)=O)CC2 [colchicine]
doses at which vascular damaging activity is elicited, relative to the maximum tolerated dose (MTD) [1]: only elicit vascular damaging activity at doses approaching the maximum tolerated dose

SMILES: COc1ccc(/C=C\c2cc(OC)c(OC)c(OC)c2)cc1O [Combretastatin A4]
anti-vascular effects at doses below the MTD [1]: greater than 10 times less than the MTD

SMILES: CC(=O)O[C@H]1C(=O)[C@@]2(C)[C@H]([C@H](OC(=O)c3ccccc3)[C@]3(O)C[C@H](OC(=O)[C@H](O)[C@@H](NC(=O)c4ccccc4)c4ccccc4)C(C)=C1C3(C)C)[C@]1(OC(C)=O)CO[C@@H]1C[C@@H]2O [Taxol, reference compound]
cell detachment in the HUVEC detachment assay [3]: does not cause cell detachment

SMILES: CC[C@]1(O)C[C@H]2CN(CCc3c([nH]c4ccccc34)[C@@](C(=O)OC)(c3cc4c(cc3OC)N(C=O)[C@H]3[C@@](O)(C(=O)OC)[C@H](OC(C)=O)[C@]5(CC)C=CCN6CC[C@]43[C@@H]65)C2)C1 [vincristine]
doses at which vascular damaging activity is elicited, relative to the maximum tolerated dose (MTD) [1]: only elicit vascular damaging activity at doses approaching the maximum tolerated dose

SMILES: Cc1cc2[nH]c(N)c(C#N)c2cc1F [Example 8, 6-methyl-5-fluoro-2-amino-1H-indole-3-carbonitrile]
activity in the colchicine binding site competitive assay (competition) [2]: 31%
activity in the HUVEC cell detachment assay (detachment) [3]: 34%

SMILES: COc1cc(Oc2ccc3[nH]c(N)c(C#N)c3c2)cc(OC)c1OC [Example 11, 5-(3,4,5-Trimethoxyphenoxy)-2-amino-1H-indole-3-carbonitrile]
melting point: 208 to 209 °C

Further lines, with some results ahead:

activity in the colchicine binding site competitive assay (competition) [2]: 36%
melting point: 241 to 242 °C
SMILES: N#Cc1c(N)[nH]c2ccc(Sc3ccc(O)cc3)cc12 [Example 2, 5-(4-Hydroxyphenylsulphanyl)-2-amino-1H-indole-3-carbonitrile]
activity in the HUVEC cell detachment assay (detachment) [3]: 55%

melting point: 216 to 217 °C
SMILES: COc1ccc(Oc2ccc3[nH]c(N)c(C#N)c3c2)cc1 [Example 9, 5-(4-Methoxyphenoxy)-2-amino-1H-indole-3-carbonitrile]

melting point: 169 to 173 °C
SMILES: COc1ccc(Sc2ccc3[nH]c(N)c(C#N)c3c2)cc1OC [Example 3, 5-(3,4-Dimethoxyphenylsulphanyl)-2-amino-1H-indole-3-carbonitrile]
